According to patent US10988477B2 (Merck Patent GmbH, priority 2018, dated 2021):

Legend:
GCN2 kinase = GCN2 kinase (Homo sapiens, UniProt Q9P2K8); experiment: GCN2 enzyme inhibition assay (Transcreener ADP2 fluorescence polarization); format: biochemical; conditions: compounds of Formula II; 280 μM ATP, 4 nM GCN2 kinase
In short: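 Inhibition of 4 nM GCN2 was measured with compound up to 8 μM final, ATP 280 μM and (RS)7 peptide 200 μM over a 1 h, 25 °C reaction. ADP FP readout; IC50 and Ki(app) calculated from percent inhibition.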

[1] = target: intracellular GCN2 (phosphorylation of the GCN2 substrate eIF2α) (Homo sapiens, UniProt Q9P2K8); experiment: GCN2 cellular inhibition assay (AlphaScreen SureFire P-eIF2α Ser51, borrelidin-treated U2OS cells); format: cell-based; conditions: compounds of Formula II; biomarker assay, phosphorylated eIF2α Ser51 in borrelidin-treated U2OS cells
In short: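 Compound effect on GCN2 is gauged by eIF2α Ser51 phosphorylation in borrelidin-challenged U2OS cells (10 μM, 1 h). Top compound level is 40 μM final.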

intracellular GCN2 (phosphorylation of the GCN2 substrate eIF2α), sequence (Q9P2K8 whole entry): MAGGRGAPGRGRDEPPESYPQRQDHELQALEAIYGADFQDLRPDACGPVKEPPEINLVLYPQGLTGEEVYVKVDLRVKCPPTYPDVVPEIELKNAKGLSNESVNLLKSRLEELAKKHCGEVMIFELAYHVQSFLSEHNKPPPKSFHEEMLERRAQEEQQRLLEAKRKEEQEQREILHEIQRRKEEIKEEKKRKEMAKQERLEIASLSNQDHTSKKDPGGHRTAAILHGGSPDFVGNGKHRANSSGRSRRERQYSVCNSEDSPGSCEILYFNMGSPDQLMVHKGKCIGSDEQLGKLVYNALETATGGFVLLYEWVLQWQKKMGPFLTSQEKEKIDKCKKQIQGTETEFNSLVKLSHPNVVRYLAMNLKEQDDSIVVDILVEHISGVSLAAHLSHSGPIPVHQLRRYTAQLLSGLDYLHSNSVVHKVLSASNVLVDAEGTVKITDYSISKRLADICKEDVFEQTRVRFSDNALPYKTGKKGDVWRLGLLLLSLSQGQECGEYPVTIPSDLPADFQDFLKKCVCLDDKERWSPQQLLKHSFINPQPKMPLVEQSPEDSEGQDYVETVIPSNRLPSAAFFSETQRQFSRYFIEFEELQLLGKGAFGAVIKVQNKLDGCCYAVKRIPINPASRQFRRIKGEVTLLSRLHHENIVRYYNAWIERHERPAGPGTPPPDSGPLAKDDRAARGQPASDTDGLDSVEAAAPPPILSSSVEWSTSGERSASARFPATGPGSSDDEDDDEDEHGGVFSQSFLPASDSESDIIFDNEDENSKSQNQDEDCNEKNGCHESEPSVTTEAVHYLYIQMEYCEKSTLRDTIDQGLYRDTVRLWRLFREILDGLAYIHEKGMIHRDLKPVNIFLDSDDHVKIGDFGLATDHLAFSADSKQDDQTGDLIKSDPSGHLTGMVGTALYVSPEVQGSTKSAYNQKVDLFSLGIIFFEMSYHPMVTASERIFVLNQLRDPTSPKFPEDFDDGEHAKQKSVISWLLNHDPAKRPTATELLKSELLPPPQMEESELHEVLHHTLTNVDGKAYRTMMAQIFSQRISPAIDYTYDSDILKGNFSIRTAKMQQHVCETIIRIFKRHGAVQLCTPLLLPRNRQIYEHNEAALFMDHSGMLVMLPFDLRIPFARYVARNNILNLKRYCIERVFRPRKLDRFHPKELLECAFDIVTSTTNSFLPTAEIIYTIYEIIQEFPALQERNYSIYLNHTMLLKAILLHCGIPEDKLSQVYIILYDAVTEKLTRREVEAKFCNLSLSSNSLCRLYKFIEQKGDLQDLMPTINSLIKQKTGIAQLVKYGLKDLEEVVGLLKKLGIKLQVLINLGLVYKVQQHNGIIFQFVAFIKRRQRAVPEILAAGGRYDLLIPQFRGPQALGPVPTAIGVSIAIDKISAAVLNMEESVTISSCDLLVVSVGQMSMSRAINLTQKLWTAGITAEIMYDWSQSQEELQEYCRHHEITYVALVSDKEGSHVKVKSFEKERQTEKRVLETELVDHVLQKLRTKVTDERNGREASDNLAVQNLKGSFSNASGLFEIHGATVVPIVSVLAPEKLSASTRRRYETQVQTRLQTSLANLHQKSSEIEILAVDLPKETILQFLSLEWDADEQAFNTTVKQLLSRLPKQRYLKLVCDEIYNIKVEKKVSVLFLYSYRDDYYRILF
GCN2 kinase, sequence (Q9P2K8 whole entry): as above

Row | Ki (GCN2 kinase) | IC50 [1] | SMILES
1 | 10 to 1000 nM | 500 to 5000 nM | CN1CCN(c2cc(-c3cnc4ccc(C(F)F)nn34)ncn2)CC12CN(S(N)(=O)=O)C2 [II-535, 8-(6-(6-(Difluoromethyl)imidazo[1,2-b]pyridazin-3-yl)pyrimidin-4-yl)-5-methyl-2,5,8-triazaspiro[3.5]nonane-2-sulfonamide]
2 | < 10 nM | < 500 nM | CC1CN(c2cc(-c3cnc4ccc(C(F)F)nn34)ncn2)CC(CNS(C)(=O)=O)=C1F (stereo not drawn) [II-537, N-((1-(6-(6-(Difluoromethyl)imidazo[1,2-b]pyridazin-3-yl)pyrimidin-4-yl)-4-fluoro-5-methyl-1,2,5,6-tetrahydropyridin-3-yl)methyl)methanesulfonamide]
3 | < 10 nM | < 500 nM | CC1=C(F)C(CNS(C)(=O)=O)CN(c2cc(-c3cnc4ccc(C(F)F)nn34)ncn2)C1 (stereo not drawn) [II-538, N-((1-(6-(6-(Difluoromethyl)imidazo[1,2-b]pyridazin-3-yl)pyrimidin-4-yl)-4-fluoro-5-methyl-1,2,3,6-tetrahydropyridin-3-yl)methyl)methanesulfonamide]
4 | < 10 nM | < 500 nM | CC1CC(CNS(C)(=O)=O)CN(c2cc(-c3cnc4ccc(C(F)F)nn34)ncn2)C1C (stereo not drawn) [II-544, N-((1-(6-(6-(Difluoromethyl)imidazo[1,2-b]pyridazin-3-yl)pyrimidin-4-yl)-5,6-dimethylpiperidin-3-yl)methyl)methanesulfonamide]
5 | 10 to 1000 nM | 500 to 5000 nM | CC1C2COC(=O)N2CCN1c1cc(-c2cnc3ccc(C(F)F)nn23)ncn1 (stereo not drawn) [II-547, 7-(6-(6-(Difluoromethyl)imidazo[1,2-b]pyridazin-3-yl)pyrimidin-4-yl)-8-methylhexahydro-3H-oxazolo[3,4-a]pyrazin-3-one]
6 | > 1000 nM | > 5000 nM | CC1NCCN(c2cc(-c3cnc4ccc(C(F)F)nn34)ncn2)C1C (stereo not drawn) [II-548, 6-(Difluoromethyl)-3-(6-(2,3-dimethylpiperazin-1-yl)pyrimidin-4-yl)imidazo[1,2-b]pyridazine]
7 | < 10 nM | < 500 nM | CC1C(NS(C)(=O)=O)CCCN1c1cc(-c2cnc3ccc(C(F)F)nn23)ncn1 (stereo not drawn) [II-602, N-(1-(6-(6-(Difluoromethyl)imidazo[1,2-b]pyridazin-3-yl)pyrimidin-4-yl)-2-methylpiperidin-3-yl)methanesulfonamide]
8 | < 10 nM | < 500 nM | C[C@@H]1C[C@H](CS(C)(=N)=O)[C@H](C)N(c2cc(-c3cnc4ccc(C(F)F)nn34)ncn2)C1 (stereo partly drawn) [II-607, (((2S,3S,5R)-1-(6-(6-(Difluoromethyl)imidazo[1,2-b]pyridazin-3-yl)pyrimidin-4-yl)-2,5-dimethylpiperidin-3-yl)methyl)(imino)(methyl)-λ^6-sulfanone]
9 | < 10 nM | < 500 nM | CC1C(CNS(C)(=O)=O)C(C)(O)C(C)CN1c1cc(-c2cnc3ccc(C(F)F)nn23)ncn1 (stereo not drawn) [II-618, N-((1-(6-(6-(Difluoromethyl)imidazo[1,2-b]pyridazin-3-yl)pyrimidin-4-yl)-4-hydroxy-2,4,5-trimethylpiperidin-3-yl)methyl)methanesulfonamide]
10 | 10 to 1000 nM | > 5000 nM | N=S1(=O)CCN(c2cc(-c3cnc4ccc(C(F)F)nn34)ncn2)CC1 [II-676, 4-[6-[6-(Difluoromethyl)imidazo[1,2-b]pyridazin-3-yl]pyrimidin-4-yl]-1-imino-1,4-thiazinane 1-oxide]
11 | 10 to 1000 nM | 500 to 5000 nM | CS(=O)(=O)NCC1CCCN(c2cc(-c3cnc4ccc(C#N)nn34)ncn2)C1 (stereo not drawn) [II-692, N-[[1-[6-(6-Cyanoimidazo[1,2-b]pyridazin-3-yl)pyrimidin-4-yl]-3-piperidyl]methyl]methanesulfonamide]
12 | 10 to 1000 nM | 500 to 5000 nM | CC1CN(c2cc(-c3cnc4ccc(C#N)nn34)ncn2)C(C)C(c2cn[nH]c2)N1 (stereo not drawn) [II-693]
